According to patent publication US9115145B2, “Tocotrienol derivatives and associated methods” (FIRST TECH INTERNATIONAL LIMITED, priority 2011, dated 2015):

Test system: +SA mammary epithelial cells
Experiment: MTT assay of +SA cells (antiproliferative activity)
Assay type: cell-based, mouse
Settings: Mus musculus, +SA cell, 24 hours treatment, read-out: IC50 antiproliferative activity against +SA mammary epithelial cells
Experimental: The antiproliferative activities of Compounds 3-44 against the highly metastatic malignant +SA mammary epithelial cells were evaluated by MTT assay. Materials for the assay were purchased from Sigma Chemical Company (St. Louis, Mo.) unless otherwise stated. The highly malignant +SA mouse mammary epithelial cell line was serially passaged at subconfluent cell density. The +SA mammary tumor cell line was derived from an adenocarcinoma that developed spontaneously in a BALB/c female mouse. +SA cells were maintained in serum-free defined medium consisting of Dulbecco's modified Eagle's medium (DMEM)/F12 containing 5 mg/mL bovine serum albumin (BSA), 10 […], 100 U/mL soybean trypsin inhibitor, 100 U/mL penicillin G, 0.1 mg/mL streptomycin, […], and 10 ng/mL epidermal growth factor. For subculturing, cells were rinsed twice with sterile Ca2+ and Mg2+-free phosphate buffered saline (PBS) and incubated in 0.05% trypsin containing 0.025% EDTA in PBS for 5 min at 37° C. The released cells were centrifuged, resuspended in fresh media and counted using hemocytometer. A stock solution of the compounds was prepared in DMSO. Once dissolved, this solution was added to a small volume of sterile 10% BSA in water and incubated overnight at 37° C. This solution conjugated to BSA was used to prepare various concentrations (0-40 μM) of tocotrienol analogs. DMSO was added to all treatment media such that the final DMSO concentration was the same in all treatment groups within a given experiment and was always less than 0.1%. For cytotoxic studies, cells were seeded at a density of 5×10^4 cells/well (+SA cells) or 1×10^5 cells/well (CL-S1 cells) (6 wells/group) in 24-well culture plates and allowed to grow in their respective control media. After 3 days incubation period (approximately 70% confluency), cells were divided equally into various treatment groups and exposed to their respective treatments for a 24 hours incubation period. Following the 24 hours treatment period, cell viability was measured using the MTT assay.
+SA Mammary epithelial cell viable number was determined by a 3-(4,5-dimethylthiazol-2yl)-2,5-diphenyl tetrazolium bromide (MTT) colorimetric assay. On the assay day, treatment medium was replaced with fresh control medium containing 0.42 mg/mL MTT, and the cells in 24-well plates were incubated at 37° C. for 4 hours. Afterward, the medium was removed, and the MTT crystals were dissolved in isopropyl alcohol (1 mL/well). The optical density of each sample was read at 570 nm on a microplate reader (SpectraCount, Packard BioScience Company), against a blank prepared from cell-free cultures. The number of cells/well was calculated against a standard curve prepared by plating various concentrations of cells, as determined by hemocytometer, at the start of each experiment.
Differences among the various treatment groups in +SA cell cytotoxic studies were determined by analysis of variance (ANOVA) followed by Dunnett's t-test. The difference of P<0.05 was considered to be statistically significant as compared with vehicle-treated controls unless separately described. Linear regression analysis of treatment effects on viable cell number in growth and cytotoxicity studies was used to determine the 50% growth inhibition concentration (IC50) for individual treatments.

Compound	IC50
CC(C)=CCC/C(C)=C/CC/C(C)=C/CC[C@]1(C)CCc2c3c(cc(C)c2O1)OCN(C)C3 [Compound 4, (R)-2,6,8-trimethyl-8-((3E,7E)-4,8,12-trimethyltrideca-3,7,11-trienyl)-1,2,3,8,9,10-hexahydrochromeno[5,6-e][1,3]oxazine]	1200 to 2200 nM
CC(C)=CCC/C(C)=C/CC/C(C)=C/CC[C@]1(C)CCc2cc(O)c(CO)c(C)c2O1 [Compound 34, (R)-7-(hydroxymethyl)-2,8-dimethyl-2-((3E,7E)-4,8,12-trimethyltrideca-3,7,11-trienyl)chroman-6-ol]	≥ 6600 nM
CC(C)=CCC/C(C)=C/CC/C(C)=C/CC[C@]1(C)CCc2c(CO)c(O)cc(C)c2O1 [Compound 33, (R)-5-(hydroxymethyl)-2,8-dimethyl-2-((3E,7E)-4,8,12-trimethyltrideca-3,7,11-trienyl)chroman-6-ol]	≥ 6600 nM
CC(C)=CCC/C(C)=C/CC/C(C)=C/CC[C@]1(C)CCc2c(CO)c(O)c(C)c(C)c2O1 [Compound 32, (R)-5-(hydroxymethyl)-2,7,8-trimethyl-2-((3E,7E)-4,8,12-trimethyltrideca-3,7,11-trienyl)chroman-6-ol]	2600 nM
CC(C)=CCC/C(C)=C/CC/C(C)=C/CC[C@]1(C)CCc2c3c(c(C)c(C)c2O1)OCN(C)C3 [Compound 3, (R)-2,5,6,8-tetramethyl-8-((3E,7E)-4,8,12-trimethyltrideca-3,7,11-trienyl)-1,2,3,8,9,10-hexahydrochromeno[5,6-e][1,3]oxazine]	1200 to 2200 nM

Same assay, conditions: described from FIG. 32 / text

Compound	antiproliferative activity against +SA mammary tumor cells (in words)
CC(C)=CCC/C(C)=C/CC/C(C)=C/CC[C@]1(C)CCc2c3c(cc(C)c2O1)OCN(CCCCC(=O)O)C3 [Compound 20, 5-((R)-6,8-dimethyl-8-((3E,7E)-4,8,12-trimethyltrideca-3,7,11-trienyl)-9,10-dihydrochromeno[5,6-e][1,3]oxazin-2(1H,3H,8H)-yl)pentanoic acid]	strong activity but less so than the aforementioned compounds
CCOC(CCN1COc2c(C)c(C)c3c(c2C1)CC[C@@](C)(CC/C=C(\C)CC/C=C(\C)CCC=C(C)C)O3)OCC [Compound 14, (R)-2-(3,3-diethoxypropyl)-5,6,8-trimethyl-8-((3E,7E)-4,8,12-trimethyltrideca-3,7,11-trienyl)-1,2,3,8,9,10-hexahydrochromeno[5,6-e][1,3]oxazine]	significantly decreased activity
CC(C)=CCC/C(C)=C/CC/C(C)=C/CC[C@]1(C)CCc2c3c(c(C)c(C)c2O1)OCN(Cc1cccc([N+](=O)[O-])c1)C3 [Compound 28, (R)-5,6,8-trimethyl-2-(3-nitrobenzyl)-8-((3E,7E)-4,8,12-trimethyltrideca-3,7,11-trienyl)-1,2,3,8,9,10-hexahydrochromeno[5,6-e][1,3]oxazine]	significant activity but less so than Compounds 20
